Measured values taken from US11306098B2, “Substituted pyrrolo[1,2-a]pyrazines and pyrrolo[1,2-a][1,4]diazepines as TREX1 inhibitors” (VENENUM BIODESIGN, LLC, priority 2019, dated 2022).
Blank lines part the entries; values can stand above or below the compound they belong to.

Assays:
human TREX1 = human TREX1 (Homo sapiens (Human), UniProt Q9NSU2); assay: TREX1 Exonuclease Assay (human enzyme); format: biochemical; conditions: human TREX1 0.5 nM, FAM/BHQ1-labeled DNA oligonucleotide
Protocol: (§1) The TREX1 Exonuclease assay is an exemplary in vitro assay for measuring the activity of the TREX1 inhibitors of the present invention. In this assay, TREX1 exonuclease activity was evaluated by measuring the increase in fluorescence resulting from TREX1-catalyzed removal of a quencher from the 3′ end of a FAM-labeled DNA oligonucleotide (5′FAM-CCA CGA GAG CGT-BHQ1-3′). The assay was conducted using Wild Type (WT) human or murine TREX1 enzyme constructs corresponding to amino acids 55-297 of UniProt ID Q9NSU2-1 (SEQ ID NO: 1), or amino acids 1-242 of UniProt ID Q91XB0-1 (SEQ ID NO: 2), respectively. See, e.g., Example A.
(§2) For human TREX1, the nucleotide sequence of the gene construct was codon optimized for expression in the bacterial host. The sequence was incorporated into the pMAL-c5e vector (NEB) downstream of a solubility-promoting MBP (maltose binding protein) fusion partner. The fusion protein product was expressed in E. coli strain BL21 (DE3) (Millipore) and purified in a series of chromatographic steps. Initial steps were conducted using a dextrin sepharose affinity column followed by a Q-sepharose ion exchange column (both GE Healthcare). After the second column the MBP partner was removed by incubation with enterokinase (NEB). Further purification was carried out with the second application of a Q-sepharose column followed by a Superdex 75 (GE Healthcare) size exclusion column. Finally, a heparin sepharose column (GE Healthcare) was applied to remove contaminating nucleotides. Similar methods were used in the preparation of the murine TREX1 enzyme and are described in Example B set forth below.
(§3) To evaluate the effect of compounds on TREX1 activity, test compounds were serially diluted (11-point, 3-fold) from 10 mM stock solutions and delivered to 384-well low-volume assay plates in 80 nL DMSO using an acoustic dispenser. Next, 4 μL of human TREX1 (0.5 nM), or murine TREX1 (1 nM), diluted in assay buffer (20 mM Tris pH 7.5, 5 mM MgCl2, 100 μg/mL BSA, 0.002% Triton X-100, 2 mM DTT), was added to the assay plate. After incubating for 30 minutes, 4 μL of labeled DNA oligonucleotide (500 nM) in assay buffer was added to initiate TREX1 exonuclease activity. The reaction was allowed to proceed for 45 minutes at room temperature prior to the addition of 4 μL of 150 mM EDTA to halt TREX1 activity. Assay plates were equilibrated for an additional 30 minutes and read on an EnVision Plate Reader (Perkin Elmer) to measure fluorescence emission at 535 nm following excitation at 485 nm. Fluorescence was plotted as a function of log molar compound concentration and fit to four-parameter dose-response equation to determine compound IC50.

murine TREX1 = murine TREX1 (Mus musculus (Mouse), UniProt Q91XB0); assay: TREX1 Exonuclease Assay (murine enzyme); format: biochemical; conditions: murine TREX1 1 nM, FAM/BHQ1-labeled DNA oligonucleotide
Protocol: as §1, §2, §3

human TREX1, sequence (Q9NSU2 1-242): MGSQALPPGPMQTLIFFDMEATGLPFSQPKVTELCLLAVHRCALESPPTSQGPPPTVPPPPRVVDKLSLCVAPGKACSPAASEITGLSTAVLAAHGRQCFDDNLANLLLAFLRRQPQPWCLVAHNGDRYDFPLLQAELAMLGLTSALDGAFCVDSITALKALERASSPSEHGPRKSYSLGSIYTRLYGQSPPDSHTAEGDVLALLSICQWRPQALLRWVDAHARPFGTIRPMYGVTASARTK
murine TREX1, sequence (Q91XB0 1-242): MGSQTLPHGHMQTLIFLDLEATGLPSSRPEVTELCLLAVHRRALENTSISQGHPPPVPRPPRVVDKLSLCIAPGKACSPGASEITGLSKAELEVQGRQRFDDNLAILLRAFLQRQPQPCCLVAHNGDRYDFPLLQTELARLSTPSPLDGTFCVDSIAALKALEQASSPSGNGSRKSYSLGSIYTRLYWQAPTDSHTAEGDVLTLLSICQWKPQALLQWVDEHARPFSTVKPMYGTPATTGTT

SMILES: CC(C)C[C@H](C(=O)N[C@@H](C)c1ccccc1)N1CCC(CCc2ccccc2)N2C[C@H](N)C[C@H]2C1=O (some centres unmarked) [Example 25]
- IC50 (human TREX1): 10 to 100 µM
- IC50 (murine TREX1): 10 to 100 µM

SMILES: CC(C)C[C@H](C(=O)NCc1cccc(Cl)c1)N1CCC(CCc2ccccc2)N2C[C@H](N)C[C@H]2C1=O (some centres unmarked) [Example 26]
- IC50 (human TREX1): < 1 µM
- IC50 (murine TREX1): 1 to 9.99 µM

SMILES: CC(C)C[C@H](C(=O)NCc1ccccc1Cl)N1CCC(CCc2ccccc2)N2C[C@H](N)C[C@H]2C1=O (some centres unmarked) [Example 27]
- IC50 (human TREX1): 1 to 9.99 µM
- IC50 (murine TREX1): 10 to 100 µM

SMILES: CC(C)C[C@H](C(=O)NCc1cnccn1)N1CCC(CCc2ccccc2)N2C[C@H](N)C[C@H]2C1=O (some centres unmarked) [Example 28]
- IC50 (human TREX1): 1 to 9.99 µM
- IC50 (murine TREX1): 10 to 100 µM

SMILES: CC(C)C[C@H](C(=O)NCc1cscn1)N1CCC(CCc2ccccc2)N2C[C@H](N)C[C@H]2C1=O (some centres unmarked) [Example 30]
- IC50 (human TREX1): 1 to 9.99 µM
- IC50 (murine TREX1): 10 to 100 µM

SMILES: CC(C)C[C@H](C(=O)NCc1ccc(Cl)cc1Cl)N1CCC(CCc2ccccc2)N2C[C@H](N)C[C@H]2C1=O (some centres unmarked) [Example 31]
- IC50 (human TREX1): < 1 µM
- IC50 (murine TREX1): 1 to 9.99 µM

SMILES: CC(C)C[C@H](C(=O)NCc1ccc(C#N)cc1)N1CCC(CCc2ccccc2)N2C[C@H](N)C[C@H]2C1=O (some centres unmarked) [Example 32]
- IC50 (human TREX1): 1 to 9.99 µM
- IC50 (murine TREX1): 10 to 100 µM

SMILES: CC(C)C[C@H](C(=O)NCc1cc(Cl)cc(Cl)c1)N1CCC(CCc2ccccc2)N2C[C@H](N)C[C@H]2C1=O (some centres unmarked) [Example 33]
- IC50 (human TREX1): < 1 µM
- IC50 (murine TREX1): 1 to 9.99 µM

SMILES: CC(C)C[C@H](C(=O)NCc1ccc(F)cc1)N1CCC(CCc2ccccc2)N2C[C@H](N)C[C@H]2C1=O (some centres unmarked) [Example 34]
- IC50 (human TREX1): < 1 µM
- IC50 (murine TREX1): 1 to 9.99 µM

SMILES: CC(C)C[C@H](C(=O)NS(=O)(=O)c1ccccc1)N1CCC(CCc2ccccc2)N2C[C@H](N)C[C@H]2C1=O (some centres unmarked) [Example 35]
- IC50 (human TREX1): 1 to 9.99 µM
- IC50 (murine TREX1): 1 to 9.99 µM

SMILES: CC(C)C[C@H](C(=O)NCCc1ccc(Cl)c(Cl)c1)N1CCC(CCc2ccccc2)N2C[C@H](N)C[C@H]2C1=O (some centres unmarked) [Example 37]
- IC50 (human TREX1): < 1 µM
- IC50 (murine TREX1): 1 to 9.99 µM

SMILES: N[C@@H]1C[C@H]2C(=O)N([C@H](CCc3nsc(=O)[nH]3)C(=O)NCc3ccc(Cl)c(Cl)c3)CCC(CCc3ccccc3)N2C1 (some centres unmarked) [Example 38]
- IC50 (human TREX1): < 1 µM
- IC50 (murine TREX1): < 1 µM

SMILES: CC(C)C[C@H](C(=O)NS(=O)(=O)c1ccc(Cl)c(Cl)c1)N1CCC(CCc2ccccc2)N2C[C@H](N)C[C@H]2C1=O (some centres unmarked) [Example 39]
- IC50 (human TREX1): < 1 µM
- IC50 (murine TREX1): < 1 µM

- IC50 (human TREX1): < 1 µM
- IC50 (murine TREX1): 1 to 9.99 µM
SMILES: CCC[C@H](CNS(=O)(=O)c1ccc(Cl)c(Cl)c1)N1CCC(CCc2ccccc2)N2C[C@H](N)C[C@H]2C1=O (some centres unmarked) [Example 40]

SMILES: CC(C)C[C@H](C(=O)NCc1ccc(Cl)c(Cl)c1)N1CCC(CS(=O)(=O)c2ccccc2)N2C[C@H](N)C[C@H]2C1=O (some centres unmarked) [Example 41]
- IC50 (human TREX1): 1 to 9.99 µM
- IC50 (murine TREX1): 10 to 100 µM

- IC50 (human TREX1): < 1 µM
- IC50 (murine TREX1): < 1 µM
SMILES: N#CCC[C@H](C(=O)NCc1ccc(Cl)c(Cl)c1)N1CCC(CCc2ccccc2)N2C[C@H](N)C[C@H]2C1=O (some centres unmarked) [Example 45]

SMILES: CC(C)C[C@H](C(=O)NCc1ccc(Cl)cc1)N1CCC(CCc2ccccc2)N2C[C@H](N)C[C@H]2C1=O (some centres unmarked) [Example 46]
- IC50 (human TREX1): < 1 µM
- IC50 (murine TREX1): 1 to 9.99 µM

SMILES: CC(C)C[C@H](C(=O)NCc1ccc(Cl)c(Cl)c1)N1CCC(CCc2ccccc2)N(CCN)CC1=O (some centres unmarked) [Example 47]
- IC50 (human TREX1): 1 to 9.99 µM
- IC50 (murine TREX1): 10 to 100 µM

SMILES: Cc1nnc(CC[C@H](C(=O)NCc2ccc(Cl)c(Cl)c2)N2CCC(CCc3ccccc3)N3C[C@H](N)C[C@H]3C2=O)[nH]1 (some centres unmarked) [Example 48]
- IC50 (human TREX1): < 1 µM
- IC50 (murine TREX1): < 1 µM
